# Test results reported in patent US20240158348A1, “HERBICIDAL CYCLIC AMIDES N-SUBSTITUTED WITH A HALOALKYLSULFONYLANILIDE GROUP” (FMC Corporation, priority 2021, published 2024).
# What was measured:
# Format in all cases: in vivo
# [1] = test system: pigweed, palmer (palmer amaranth, Amaranthus palmeri); assay: Test A preemergence, palmer amaranth; details: 0 to 100 scale, 10 days
# Source text: (§1) Seeds of plant species selected from barnyardgrass (Echinochloa crus-galli), blackgrass (Alopecurus myosuroides), corn (Zea mays), foxtail, giant (giant foxtail, Setaria faberi), goosegrass (Eleusine indica), kochia (Bassia scoparia), oat, wild (wild oat, Avena fatua), pigweed, palmer (palmer amaranth, Amaranthus palmeri), pigweed, redroot (redroot pigweed, Amaranthus retroflexus), ragweed (common ragweed, Ambrosia artemisiifolia), ryegrass, Italian (Italian ryegrass, Lolium multiflorum), soybean (Glycine max), and wheat (Triticum aestivum) were planted into a blend of loam soil and sand and treated preemergence with a directed soil spray using test chemicals formulated in a non-phytotoxic solvent mixture which included a surfactant.
# (§2) At the same time, plants selected from these crop and weed species and also galium (catchweed bedstraw, Galium aparine) and horseweed (Erigeron canadensis) were planted in pots containing the same blend of loam soil and sand and treated with postemergence applications of test chemicals formulated in the same manner. Plants ranged in height from 2 to 10 cm and were in the one- to two-leaf stage for the postemergence treatment. Treated plants and untreated controls were maintained in a greenhouse for 10 days, after which time all treated plants were compared to untreated controls and visually evaluated for injury. Plant response ratings, summarized in Table A, are based on a 0 to 100 scale where 0 is no effect and 100 is complete control. A dash (-) response means no test result.
# [2] = test system: ragweed (common ragweed, Ambrosia artemisiifolia); assay: Test A postemergence, ragweed; details: post-emergence, 240 h, 0 to 100 scale, 10 days, read-out: Plant response rating, Ragweed
# Source text: as §1, §2
# [3] = test system: corn (Zea mays); assay: Test A preemergence, corn; details: 0 to 100 scale, 10 days
# Source text: as §1, §2
# [4] = test system: pigweed, palmer (palmer amaranth, Amaranthus palmeri); assay: Test A postemergence, palmer amaranth; details: 0 to 100 scale, 10 days
# Source text: as §1, §2
# [5] = test system: galium (catchweed bedstraw, Galium aparine); assay: Test A postemergence, galium; details: post-emergence, 240 h, 0 to 100 scale, 10 days, read-out: Plant response rating, Galium
# Source text: as §1, §2
# [6] = test system: ryegrass, Italian (Italian ryegrass, Lolium multiflorum); assay: Test A postemergence, Italian ryegrass; details: post-emergence, 240 h, 0 to 100 scale, 10 days, read-out: Plant response rating, Ryegrass, Italian
# Source text: as §1, §2
# [7] = test system: goosegrass (Eleusine indica); assay: Test A preemergence, goosegrass; details: 0 to 100 scale, 10 days
# Source text: as §1, §2
# [8] = test system: ducksalad (Heteranthera limosa); assay: Test B flooded paddy test, ducksalad; details: 250 g ai/ha, Flood, scale of 0 to 100 where 0 is no effect and 100 is complete control, visually evaluated after 10 to 14 days, read-out: Plant response rating, Ducksalad
# Description: Plant species in the flooded paddy test selected from barnyardgrass (Echinochloa crusgalli), ducksalad (Heteranthera limosa), rice (Oryza sativa), and sedge, umbrella (small-flower umbrella sedge, Cyperus difformis) were grown to the 2-leaf stage for testing. At time of treatment, test pots were flooded to 3 cm above the soil surface, treated by application of test compounds directly to the paddy water, and then maintained at that water depth for the duration of the test. Treated plants and controls were maintained in a greenhouse for 10 to 14 days, after which time all species were compared to controls and visually evaluated. Plant response ratings, summarized in Table B, are based on a scale of 0 to 100 where 0 is no effect and 100 is complete control. A dash (-) response means no test result.
# [9] = test system: oat, wild (wild oat, Avena fatua); assay: Test A postemergence, wild oat; details: 0 to 100 scale, 10 days
# Source text: as §1, §2
# [10] = test system: wheat (Triticum aestivum); assay: Test A postemergence, wheat; details: post-emergence, 240 h, 0 to 100 scale, 10 days, read-out: Plant response rating, Wheat
# Source text: as §1, §2
smiles,measurement,setting,value
"Cc1cc(C)c(N(COC(=O)C(C)(C)C)S(=O)(=O)C(F)(F)F)cc1N1CCC(OC2CCC2)C1=O (stereo not shown) [Compound 8, [[5-[3-(cyclobutyloxy)-2-oxo-1-pyrrolidinyl]-2,4-dimethylphenyl][(trifluoromethyl)sulfonyl]amino]methyl 2,2-dimethylpropanoate]","Plant response rating, Pigweed, Palmer",[1]; 31 g ai/ha,30
same,"Plant response rating, Pigweed, Palmer",[1]; 125 g ai/ha,90
same,pest or weed control at 31 g/ha,[2]; 31 g ai/ha,70%
same,pest or weed control at 125 g/ha,[2]; 125 g ai/ha,90%
same,"Plant response rating, Corn",[3]; 31 g ai/ha,0
same,"Plant response rating, Corn",[3]; 125 g ai/ha,10
same,"Plant response rating, Pigweed, Palmer",[4]; 31 g ai/ha,60
same,"Plant response rating, Pigweed, Palmer",[4]; 125 g ai/ha,90
same,pest or weed control at 31 g/ha,[5]; 31 g ai/ha,100%
same,pest or weed control at 125 g/ha,[5]; 125 g ai/ha,100%
same,pest or weed control at 31 g/ha,[6]; 31 g ai/ha,40%
same,pest or weed control at 125 g/ha,[6]; 125 g ai/ha,100%
same,"Plant response rating, Goosegrass",[7]; 31 g ai/ha,70
same,"Plant response rating, Goosegrass",[7]; 125 g ai/ha,100
same,pest or weed control at 250 g/ha,[8],95%
same,"Plant response rating, Oat, Wild",[9]; 31 g ai/ha,10
same,"Plant response rating, Oat, Wild",[9]; 125 g ai/ha,30
same,plant injury at 31 g/ha,[10]; 31 g ai/ha,60%
same,plant injury at 125 g/ha,[10]; 125 g ai/ha,70%
